Source: patent publication US8722714B2, “Oxazolidine derivatives as NMDA antagonists” (The Honk Kong University of Science and Technology, priority 2008, dated 2014)

Test system: MCAO rats
Test: Middle cerebral artery occlusion (MCAO) model: mNSS, infarct volume, edema volume
Assay type: in vivo, rat
Details: for edema volume (% of the ipsilateral hemisphere) / infarct volume: 2 h MCAO; for infarct volume: mean±S.E.M.
Method: Before surgery, male rats were 259-354 g fasted overnight with free access to water. Briefly, rats were anesthetized with chloral hydrate (400 mg/kg, ip). Through a midline neck incision, the right common and external carotid artery were isolated from muscles and coagulated. A suture with a blunted tip was inserted into the internal carotid through the external carotid artery stump and advanced up to 21 mm or till resistance was […]. A thermostatically regulated heating pad was used to maintain temperature at 37° C. After 2 h of MCAO, the suture was removed to restore blood flow. In sham group, the same surgical procedure was performed except that the suture was introduced into the external carotid artery but not advanced. After surgery, the incision was sutured and the rats were returned to their cage with free access to water and food.
Neurological function of ischemic rats was graded on modified Neurological Severity Score (mNSS) system in a range of 0 to 18 (normal score, 0; maximal deficit score, 18). The mNSS system is a composite evaluation of motor and sensory function, balance impairment and reflex abnormality of ischemic animals (Chen et al., 2001 Intravenous administration of human umbilical cord blood reduces behavioral deficits after stroke in rats. Stroke 32:2682-8.). In the severity scores of injury, 1 score point is awarded for the inability to perform the test or for the lack of a tested reflex; thus, the higher the score, the more severe is the injury.
At 3 days after ischemia, whole brains were rapidly removed. The brain were sliced into 2-mm-thick coronal sections and stained with 1% 2,3,5-triphenyltetrazoliumchloride (TTC, Sigma) at 37° C. for 30 minutes in the dark, followed by fixation with 4% paraformaldehyde (PFA) at 4° C. overnight. The sections were scanned with scanner connected to a computer. The unstained areas, defined as infarct tissue, were calculated by using an image analysis program. The infarct volume was calculated by measuring the unstained area in each slice. The infarct area in each slice was calculated by subtracting the normal ipsilateral (ischemic) area from that of the contralateral (non-ischemic) hemisphere to reduce errors due to cerebral edema and was presented as a percentage relative to the area of the contralateral hemisphere.
The contralateral hemispheric volume was used as a control for calculation of ischemia-induced brain edema in the ipsilateral hemisphere. A net difference in hemispheric volumes was gained by subtracting the volume of the […] from that of the infracted hemisphere. Brain swelling was expressed as a percentage of the net difference in ischemic hemispheric volume over the contralateral hemispheric volume.
Rats were subjected to middle cerebral artery occlusion (MCAO) to induce focal cerebral ischemia. Neurological functions of these ischemic rats were then graded on a modified Neurological Severity Score (mNSS) system from a range of 0 to 18 (normal score, 0; maximal deficit score, 18). The mNSS system is a composite evaluation of motor and sensory function, balance impairment and reflex abnormality of ischemic animals. […]
3 days after ischemia, whole brains were rapidly removed, sliced into 2-mm-thick coronal sections, stained with 1% 2,3,5-triphenyltetrazoliumchloride (TTC) and fixed (FIG. 6a). […] Infarct volume was measured in the coronal brain sections.
Infarct volume and edema volume were also measured. […]

Structure (SMILES): CC[C@H]1N[C@@H](CC(C)C)C(CC)(CC)O1 [LC-02]
- edema volume (% of the ipsilateral hemisphere) (35 mg/kg): 2.44±0.43%
- infarct volume (35 mg/kg): 34.45%±3.38%
- functional recovery, modified Neurological Severity Score (mNSS) (70 mg/kg oral, 24, 48 and 72 hours after MCAO, vs vehicle): significantly improved functional recovery
- edema volume (% of the ipsilateral hemisphere) (70 mg/kg): 2.85±0.80%
- infarct volume (70 mg/kg, P<0.01): 18.49%±2.34%
